Measured values as given in patent US9321838B2, “Therapy targeting cathepsin S” (Fusion Antibodies Limited, priority 2006, dated 2016).

How the values were obtained:
[1] = test system: HCT116+/+ human colorectal adenocarcinoma xenograft; assay: HCT116+/+ xenograft model, immunohistochemistry of tumour sections; format: in vivo, SCID mice; conditions: 15 mg/kg; sections stained with CatS 1E11 mAb; vs untreated
Description: 6-8 week old female SCID mice were implanted with 2×10^6 HCT116+/+ human colorectal adenocarcinoma cells into each flank. […] They were mixed with equal volumes of matrigel to give a final concentration of 5×10^6 cells/ml. Mice were randomly separated into treatment groups on day 5 after implantation and treated with various regimes of CatS Mab or Isotype control Mab (10 mg/kg) with/without 5Fu (15 mg/kg daily or 70 mg/kg twice weekly). All drugs were administered through a bolus injection. Animals were sacrificed at various time points and tumours were removed for analysis.
Paraffin embedding of formalin-fixed xenograft/organ tissue samples, section cutting and H&E (haematoxylin and eosin) staining of tissue sections were performed as previously described. Immunostaining was performed using the avidin-horseradish peroxidase method (Vectorlabs ABC Kit).
Briefly, sections were deparaffinised by passing from xylene to alcohol to running water. Endogenous peroxidase activity was blocked by incubation in 3% H2O2 in methanol for 10 min. Sections were then boiled in citrate buffer, pH6.0, for 22 min. Incubation in 5% normal horse serum blocking solution was carried out for 20 min at room temp. Sections were incubated with primary antibody at 4° C. overnight. Appropriate isotype controls were used at the same dilutions as primary antibodies. […]

[2] = test system: H630 p53 mutant cells; assay: flow cytometry of CatS cell surface expression with/without CPT11; format: cell-based, human; conditions: CPT11 48 hour treated; basal 37%
Description: (§1) Cells were collected from tissue culture plates using a scraper and washed ×3 in PBS (0.01% tween) (5 minute centrifugation at 1500 rpm). Approximately 5×10^5 cells were placed in appropriately labelled tubes. Cells were incubated with 50 μl anti-CatS or Isotype control (Sigma, UK) for 1 hour at room temperature. Following incubation each tube was washed ×3 in PBS (0.01% tween) (5 minute centrifugation at 1500 rpm). Samples were then incubated with a 1 in 15 dilution of FITC-conjugated goat anti-mouse secondary antibody (Sigma, UK) (samples kept in dark at room temperature). Following incubation each tube was washed ×3 in PBS (0.01% tween) (5 minute centrifugation at 1500 rpm). Samples were resuspended in 0.5 ml of PBS prior to immediate analysis using the Cyan flow cytometer (Dako, UK). Cell surface expression of CatS was examined using flow Cytometry.

[3] = test system: RKO+/+ cells; assay: as above; format: cell-based, human; conditions: CPT11 48 hour treated; basal 38%
Description: as §1

[4] = test system: HCT116+/+ cells; assay: as above; format: cell-based, human; conditions: CPT11 48 hour treated; basal 39%
Description: as §1

[5] = test system: RKO+/+ cells; assay: western blot of CatS in whole cell lysates with/without CPT11; format: cell-based, human; conditions: 48 hour CPT11 treatment (7.5 μM), whole cell lysate
Description: (§2) Cells were washed in PBS (5 minute centrifugation at 1500 rpm) prior to lysis with RIPA buffer containing a protease inhibitor cocktail (Calbiochem, UK) as previously described. Whole cell lysates were loaded onto 12% SDS-PAGE gels at equal concentrations. Gels were run overnight at 50V prior to semi-dry transfer onto nitrocellulose membrane at 20V for 45 minutes (BioRad, UK). The nitrocellulose membrane was blocked using PBS (3% Milk powder) for ˜1 hour, and washed ×3 with PBS (0.01% tween) for 5 minutes. The membrane was then probed with a 1 in 1000 dilution of CatS Mab (1E4 Mab or 1E11 Mab) in PBS (3% Milk powder) for 1 hour. The membrane was washed ×3 with PBS (0.01% tween) for 5 minutes prior to the addition of a 1 in 5000 dilution of secondary goat anti mouse-HRP conjugated antibody (BioRad, UK) in PBS (3% Milk powder) for 1 hour. This was then washed three times in PBS (0.01% tween) for 5 minutes each. The membrane was ‘developed’ by ECL (enhanced chemiluminescence) using the Super Signal kit (Pierce). The membrane was incubated in ECL solution for 5 minutes, prior to exposure to photographic film for various time periods. The photographic film was washed in developer solution (Sigma, UK) for 1 minute, rinsed with water, and washed in fixer solution (Sigma, UK) again for 1 minute before being rinsed and dried. […]

[6] = test system: HCT116+/+ cells; assay: as above; format: cell-based, human; conditions: 48 hour CPT11 treatment (7.5 μM), whole cell lysate
Description: as §2

[7] = test system: HCT116+/+ cells; assay: RT semi quantitative PCR of CatS mRNA with/without CPT11; format: cell-based, human; conditions: 7.5 μM CPT11, 48 hour; treated vs untreated
[8] = test system: RKO+/+ cells; assay: as above; format: cell-based, human; conditions: 7.5 μM CPT11, 48 hour; treated vs untreated
[9] = test system: other cathepsins; conditions: at higher concentrations; cited from earlier work
[10] = test system: U251MG grade IV glioblastoma cell line; conditions: U251MG cells, in the presence of the Cat S inhibitor; cited from earlier work

For `O=c1[nH]cc(F)c(=O)[nH]1` [5-Fu, Fluorouracil, reference compound], the “CatS expression in tumour sections from treated mice” value [1] was “upregulation in CatS expression”.
With `CCc1c2c(nc3ccc(OC(=O)N4CCC(N5CCCCC5)CC4)cc13)-c1cc3c(c(=O)n1C2)COC(=O)[C@]3(O)CC` [CPT11, Irinotecan] the “positive CatS cell surface expression following chemotherapy induction” value [2] was 41%, the “positive CatS cell surface expression following chemotherapy induction” value [3] was 49% and the “positive CatS cell surface expression following chemotherapy induction” value [4] was 59%. For the same molecule, the “CatS whole protein expression, treated vs untreated” value [5] was “no obvious difference in whole protein expression levels”, the “CatS whole protein expression, treated vs untreated” value [6] was “no obvious difference in whole protein expression levels” and the “CatS mRNA expression in response to chemotherapy” value [7] was “increase in expression”. For the same molecule, the “CatS mRNA expression in response to chemotherapy” value [8] was “increase in expression”.
In the case of `CC(C)C[C@H](NC(=O)N1CCOCC1)C(=O)N[C@H](/C=C/S(=O)(=O)c1ccccc1)CCc1ccccc1` [LHVS, 4-Morpholineurea-Leu-HomoPhe-vinylsulphone], the “inhibition of other cathepsins” value [9] is listed as “inhibit other cathepsins when used at higher concentrations” and the reduction in invasion [10] is listed as 61%.
